Assays:
[1] = system: porcine renal mitochondrial respiratory complex II/III; assay: Mitochondrial respiratory complex activity, porcine ex vivo renal model; parameters: protection of porcine complex II/III: dose or concentration left out as unconfirmed
Experimental: FIG. 15 depicts graphs showing activities or (A) porcine renal mitochondrial respiratory complex I, (B) activities or porcine renal mitochondrial respiratory complex II/III, and (C) activities or porcine renal mitochondrial respiratory complex IV, after MitoQ treatment. MitoQ ([…]) protected porcine complex II/III following 24 hr cold preservation. Values are expressed as mean SEM (n=4).
Mitochondrial respiratory complex activity was also evaluated in the porcine ex vivo renal model at 24-h and 48-h CS. […] Protection of Complex II/III by MitoQ (100 μM) was significant following 24-h cold preservation.

[2] = system: NRK cells; assay: Nitrotyrosine immunocytochemistry, CS plus rewarming; format: cell-based, rat; details: 4-h CS plus overnight (18 h) RW, 1 μM added during CS
Experimental: Normal rat kidney proximal tubular cells (NRK-52E; American Type Culture Collection, Manassas, Va.) were maintained in six-well 100 or 150-mm, or 150-mm plates in a humidified incubator gassed with 5% CO2 and 95% air at 37° C. in DMEM (Invitrogen, Carlsbad, Calif.) containing 5% fetal calf serum (FCS). Cells were grown to 60% confluence and divided into four treatment groups: 1) untreated (Untx), 2) CS, 3) CS+MitoQ, and 4) CS+DecylTPP. Untreated cells remained at 37° C. in DMEM containing 5% FCS (group 1). CS was initiated by washing cells with cold PBS (Invitrogen) twice and storing them in UW/Viaspan solution alone (4 h at 4° C.) (group 2), CS+MitoQ (1 μM) (group 3), or CS+DecylTPP (1 μM) (group 4). In separate experiments, cells were exposed to CS plus RW by replacing UW solution alone or UW solution containing MitoQ or DecylTPP with DMEM containing 5% FCS overnight (18 h at 37° C.).
NRK cells (groups 1-4) were assessed for nitrotyrosine formation as previously described. […] Nitrotyrosine staining was evaluated and captured with equal exposure times using a Nikon Eclipse 800 microscope (40×oil). Images were quantified by averaging the mean intensity fluorescence of five random cells in three different fields using Nikon N is Elements software. Renal tissue sections were assessed for the presence of nitrotyrosine protein adducts by nitrotyrosine immunohistochemistry. […]

[3] = system: rat kidneys; assay: MitoSOX Red mitochondrial superoxide generation, cold storage ex vivo model
Experimental: All animals were treated according to the National Institutes of Health Guide for the Care and Use of Laboratory Animals and the University of Arkansas for Medical Sciences Institutional Animal Care and Use Committee guidelines. Male Fischer 344 inbred rats (Charles Rivers Laboratories, Inc., Wilmington, Mass.) weighing between 250 and 300 g were anesthetized with ethrane, followed by shaving and prepping with betadine. […] Bulldog clamps were placed on the aorta and vena cava (proximal and distal to the renal vessels) to prevent blood flow to the kidneys. A 22-gauge surgical needle was used to puncture the rat's aorta to flush the renal grafts with saline (10 ml per kidney) using a small catheter. Once the kidneys started to turn light brown (perfusion), another vent was formed in the vena cava to allow blood flow from the kidneys. Once both kidneys were completely flushed, the right kidney was recovered and served as a control (group 1), and the left kidney was exposed to CS alone for 4 h at 4° C. (group 2). In additional experiments, kidneys were flushed with saline through the aorta using a small catheter followed by flushing the right kidney with saline containing MitoQ (100 μM) and the left kidney with saline containing DecylTPP (100 μM) (10 ml per kidney). Tissues were recovered and stored in CS+MitoQ (100 μM; right kidney) or CS+DecylTPP (100 μM; left kidney) for 4 h at 4° C. (groups 3 and 4, respectively). […]
MitoSOX Red (Invitrogen) was used to measure mitochondrial superoxide generation during CS. […] Fluorescence was visualized using an Eclipse E800 microscope (Nikon, Melville, N.Y.) with a rhodamine filter using a water immersion objective (60×). Fluorescent images of NRK cells were captured with equal exposure times and quantified by averaging the mean intensity fluorescence of five random cells in three different fields using Nikon N is Elements software. In separate experiments, cells were grown on coverslips, preloaded with MitoSOX Red before treatment (groups 1-4), and evaluated for mitochondrial superoxide generation using a Hitachi F-2500 spectrofluorometer (Hitachi, Tokyo, Japan) equipped with a coverslip holder using two different excitation wavelengths: 396 and 510 nm with the emission measured at 580 nm as previously described. In addition, rat kidneys were monitored for mitochondrial superoxide generation by flushing kidneys with saline through the aorta using a small catheter as described under Cold Storage Ex Vivo Model, followed by saline containing MitoSOX Red (5 μM; 10 ml/kidney) before treatment (groups 1-4). Paraffin sections were analyzed using the rhodamine filter on the Nikon Eclipse 800 microscope (20×).

[4] = patients with chronic hepatitis C virus infection, phase II clinical trials; cited from earlier work

## COC1=C(OC)C(=O)C(CCCCCCCCCC[P+](c2ccccc2)(c2ccccc2)c2ccccc2)=C(C)C1=O [MitoQ, mitoquinone]
[1]; porcine ex vivo renal model
  protection of Complex II/III activity, 24-h versus 48-h CS: at 24-h better than at 48-h
[1]; porcine kidneys, 24-h cold preservation, MitoQ (100 μM)
  Protection of Complex II/III: significant
[1]; porcine kidneys, 24 hr cold preservation
  protection of porcine complex II/III: protected
[2]
  nitrotyrosine staining during CS.RW: attenuated nitrotyrosine staining significantly
[3]; following cold preservation (Example 1)
  mitochondrial superoxide production (Mitosox Red staining): blunted
[3]; rat kidneys, 4 h CS at 4° C., 100 μM
  mitochondrial superoxide generation (MitoSOX Red): markedly decreased
[3]; rat kidneys, cold storage 4 hr UW, 4° C., UW+MitoQ (100 µM), n=3
  MitoSox Red staining (superoxide): decreases
[4]
  liver damage: reduce liver damage

— patent US9258995B2, “Organ cold storage composition and methods of use” (BOARD OF TRUSTEES OF THE UNIVERSITY OF ARKANSAS, priority 2009, dated 2016)
